This passage reports Rate results from ChEMBL document CHEMBL1121596, “Metabolic beta-hydroxylation and N-oxidation of N'-nitrosonornicotine” (J Med Chem, 1980).

The data set is filed under the species Rattus norvegicus. As to the kind of experiment: Rate of formation of compound by F-344 rat liver microsomes. It counts as ADME.

For `O=C(CCCO)c1cccnc1`, the Rate was 0.4 nmol/min/mg. Take `O=NN1CC(O)CC1c1cccnc1` (stereo not given): the Rate is less than 0.01 nmol/min/mg. As for `O=NN1CCC(O)C1c1cccnc1` (stereo not given), the figure is less than 0.01 nmol/min/mg; as for `O=NN1CCCC1c1ccc[n+]([O-])c1` (stereo not given), 0.57 nmol/min/mg. The result for `OC1CCC(c2cccnc2)O1` (stereo not given) reads 0.76 nmol/min/mg.
